What was measured:
[1] = molecular target: T1, ERO1-like protein alpha (Homo sapiens, UniProt Q96HE7); assay: Inhibition of human Ero1-Lalpha
T1 sequence (Q96HE7 whole entry): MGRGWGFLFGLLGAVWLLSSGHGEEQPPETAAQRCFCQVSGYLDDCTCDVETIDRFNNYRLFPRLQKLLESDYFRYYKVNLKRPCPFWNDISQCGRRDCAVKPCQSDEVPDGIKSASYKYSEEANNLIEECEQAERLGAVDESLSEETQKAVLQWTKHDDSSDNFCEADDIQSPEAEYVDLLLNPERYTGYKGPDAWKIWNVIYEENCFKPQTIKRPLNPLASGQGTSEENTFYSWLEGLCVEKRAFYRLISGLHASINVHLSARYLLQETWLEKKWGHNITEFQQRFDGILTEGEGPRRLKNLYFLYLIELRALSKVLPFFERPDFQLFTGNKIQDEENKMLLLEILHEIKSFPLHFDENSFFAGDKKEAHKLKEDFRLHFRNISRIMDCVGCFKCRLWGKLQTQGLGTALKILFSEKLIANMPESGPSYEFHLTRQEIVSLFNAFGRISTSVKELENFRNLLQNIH

[2] = Inhibition of yeast Ero1p by fluorescence assay; parameters: species or system Saccharomyces cerevisiae

| SMILES | IC50 [1] | IC50 [2] |
| --- | --- | --- |
| COc1ccc(/C=C2/C(=O)N(c3ccc(Cl)cc3)N=C2C(F)(F)F)cc1OC | 8 µM | 73 µM |
| O=C(Nc1cc2c(cc1C(=O)O)C(=O)c1ccccc1C2=O)c1ccc([N+](=O)[O-])cc1 | 37 µM |  |
| COc1cc(/C=C2\C(=O)NN(c3ccc(Br)cc3)C2=O)cc(Br)c1OC(C)=O | 3 µM | 31 µM |
| COc1ccc(N2C(=O)NC(=O)/C(=C\c3ccc(OCCOc4cccc(OC)c4)c(OC)c3)C2=O)cc1 | 24 µM |  |
| CCOc1cc(/C=C2\C(=O)NC(=O)N(c3ccc(C)cc3)C2=O)ccc1OCCOc1cccc2ccccc12 | 17 µM |  |
| O=C(Cn1cnc([N+](=O)[O-])c1[N+](=O)[O-])Nc1cc(Oc2ccccc2)cc([N+](=O)[O-])c1 | 10 µM | > 300 µM |
| COc1cc(/C=C2/N=C(c3ccc4ccccc4c3)OC2=O)ccc1OC(C)=O | 54 µM |  |
| O=C1NC(=O)N(c2ccc(Cl)cc2)C(=O)/C1=C/c1ccc(O)c(O)c1 | 11 µM |  |
| COc1cc(Cl)cc(/C=C2\C(=O)NN(c3ccc(F)c(Cl)c3)C2=O)c1O | 38 µM |  |
| O=C(N/N=C1\C(=O)N(Cc2cccc([N+](=O)[O-])c2)c2ccccc21)c1cc2ccccc2cc1O | 108 µM |  |
| O=C(Nc1sc(-c2ccccc2)cc1C(=O)O)c1ccc(Br)cc1 | 67 µM |  |
| O=C1NC(=O)N(c2ccc(Cl)cc2)C(=O)/C1=C/Nc1cccc(O)c1 | 80 µM |  |

Reference: ChEMBL document CHEMBL1667849, “Identification of small molecular inhibitors for Ero1p by structure-based virtual screening” (Bioorg Med Chem Lett, 2011)
